From ChEMBL document CHEMBL3297661, “1-Substituted-5-[(3,5-dinitrobenzyl)sulfanyl]-1H-tetrazoles and their isosteric analogs: A new class of selective antitubercular agents active against drug-susceptible and multidrug-resistant mycobacteria” (Eur J Med Chem, 2014)
In brackets after ≈: the same amount, converted by molar mass.

Legend:
[1] = Cytotoxicity against MDCK2 cells assessed as cell viability at 30 uM after 48 hrs by MTT assay; format: cell-based, Canis lupus familiaris, MDCK-II; conditions: dog, read-out: Activity
[2] = system: Mycobacterium tuberculosis; test: Antimycobacterial activity against Mycobacterium tuberculosis CNCTC My 331/88 after 14 days by micromethod; format: functional; conditions: CNCTC My 331/88, 336 h
[3] = system: Pseudomonas aeruginosa; test: Antibacterial activity against Pseudomonas aeruginosa ATCC 9027 after 24 hrs by broth microdilution method; format: functional; conditions: ATCC 9027, 24 h
[4] = system: Trichophyton mentagrophytes; test: Antifungal activity against Trichophyton mentagrophytes 445 after 72 hrs by broth microdilution method; format: functional, organism-based; conditions: Trichophyton mentagrophytes, 445, 72 h
[5] = system: Mycobacterium avium; test: Antimycobacterial activity against Mycobacterium avium CNCTC My 330/88 after 14 days by micromethod; format: functional; conditions: CNCTC My 330/88, 336 h
[6] = system: Trichophyton mentagrophytes; test: Antifungal activity against Trichophyton mentagrophytes 445 after 120 hrs by broth microdilution method; format: functional, organism-based; conditions: Trichophyton mentagrophytes, 445, 120 h
[7] = system: Enterococcus faecalis; test: Antibacterial activity against Enterococcus faecalis J 14365/08 after 24 hrs by broth microdilution method; format: functional; conditions: J 14365/08, 24 h
[8] = system: Lichtheimia corymbifera; test: Antifungal activity against Absidia corymbifera 272 after 24 hrs by broth microdilution method; format: functional, organism-based; conditions: Lichtheimia corymbifera, 272, 24 h
[9] = system: Klebsiella pneumoniae; test: Antibacterial activity against Klebsiella pneumoniae D 11750/08 after 24 hrs by broth microdilution method; format: functional; conditions: D 11750/08, 24 h
[10] = system: Candida tropicalis; test: Antifungal activity against Candida tropicalis 156 after 24 hrs by broth microdilution method; format: functional; conditions: Candida tropicalis, 156, 24 h
[11] = system: Pichia kudriavzevii; test: Antifungal activity against Candida krusei E28 after 24 hrs by broth microdilution method; format: functional; conditions: E28, 24 h
[12] = system: Enterococcus faecalis; test: Antibacterial activity against Enterococcus faecalis J 14365/08 after 48 hrs by broth microdilution method; format: functional; conditions: J 14365/08, 48 h
[13] = system: Staphylococcus epidermidis; test: Antibacterial activity against Staphylococcus epidermidis H 6966/08 after 24 hrs by broth microdilution method; format: functional; conditions: H 6966/08, 24 h
[14] = Cytotoxicity against human HuH7 cells assessed as cell viability at 30 uM after 48 hrs by MTT assay; format: cell-based, Huh-7; conditions: read-out: Activity
[15] = system: Pichia kudriavzevii; test: Antifungal activity against Candida krusei E28 after 48 hrs by broth microdilution method; format: functional; conditions: E28, 48 h
[16] = system: Klebsiella pneumoniae; test: Antibacterial activity against extended spectrum beta-lactamase producing Klebsiella pneumoniae J 14368/08 after 24 hrs by broth microdilution method; format: functional; conditions: J 14368/08, 24 h
[17] = system: Mycobacterium kansasii; test: Antimycobacterial activity against Mycobacterium kansasii CNCTC My 235/80 after 21 days by micromethod; format: functional; conditions: CNCTC My 235/80, 504 h
[18] = system: Mycobacterium kansasii; test: Antimycobacterial activity against Mycobacterium kansasii CNCTC My 235/80 after 7 days by micromethod; format: functional; conditions: CNCTC My 235/80, 168 h
[19] = system: Staphylococcus epidermidis; test: Antibacterial activity against Staphylococcus epidermidis H 6966/08 after 48 hrs by broth microdilution method; format: functional; conditions: H 6966/08, 48 h
[20] = system: Mycobacterium kansasii; test: Antimycobacterial activity against Mycobacterium kansasii 6509/96 after 7 days by micromethod; format: functional; conditions: 6509/96, 168 h
[21] = system: Mycobacterium avium; test: Antimycobacterial activity against Mycobacterium avium CNCTC My 330/88 after 21 days by micromethod; format: functional; conditions: CNCTC My 330/88, 504 h
[22] = system: Escherichia coli; test: Antibacterial activity against Escherichia coli ATCC 8739 after 48 hrs by broth microdilution method; format: functional; conditions: ATCC 8739, ATCC 8739, 48 h
[23] = system: Pseudomonas aeruginosa; test: Antibacterial activity against Pseudomonas aeruginosa ATCC 9027 after 48 hrs by broth microdilution method; format: functional; conditions: ATCC 9027, 48 h
[24] = Cytotoxicity against MDCK2 cells assessed as reduction in cell viability after 48 hrs by MTT assay; format: cell-based; conditions: Canis lupus familiaris, MDCK-II
[25] = system: Mycobacterium kansasii; test: Antimycobacterial activity against Mycobacterium kansasii 6509/96 after 14 days by micromethod; format: functional; conditions: 6509/96, 336 h
[26] = system: Candida albicans; test: Antifungal activity against Candida albicans ATCC 44859 after 48 hrs by broth microdilution method; format: functional; conditions: ATCC 44859, 48 h
[27] = system: Mycobacterium kansasii; test: Antimycobacterial activity against Mycobacterium kansasii CNCTC My 235/80 after 14 days by micromethod; format: functional; conditions: CNCTC My 235/80, 336 h
[28] = system: Mycobacterium kansasii; test: Antimycobacterial activity against Mycobacterium kansasii 6509/96 after 21 days by micromethod; format: functional; conditions: 6509/96, 504 h
[29] = system: Nakaseomyces glabratus; test: Antifungal activity against Candida glabrata 20/I after 48 hrs by broth microdilution method; format: functional
[30] = system: Mycobacterium tuberculosis; test: Antimycobacterial activity against Mycobacterium tuberculosis CNCTC My 331/88 after 21 days by micromethod; format: functional; conditions: CNCTC My 331/88, 504 h
[31] = system: Lichtheimia corymbifera; test: Antifungal activity against Absidia corymbifera 272 after 48 hrs by broth microdilution method; format: functional, organism-based; conditions: Lichtheimia corymbifera, 272, 48 h
[32] = system: Staphylococcus aureus; test: Antibacterial activity against methicillin-resistant Staphylococcus aureus H 5996/08 after 48 hrs by broth microdilution method; format: functional; conditions: H 5996/08, 48 h
[33] = system: Escherichia coli; test: Antibacterial activity against Escherichia coli ATCC 8739 after 24 hrs by broth microdilution method; format: functional; conditions: ATCC 8739, ATCC 8739, 24 h
[34] = system: Nakaseomyces glabratus; test: Antifungal activity against Candida glabrata 20/I after 24 hrs by broth microdilution method; format: functional
[35] = system: Trichosporon asahii; test: Antifungal activity against Trichosporon asahii 1188 after 48 hrs by broth microdilution method; format: functional; conditions: Trichosporon asahii, 1188, 48 h
[36] = system: HepG2; test: Cytotoxicity against human HepG2 cells assessed as reduction in cell viability after 48 hrs by MTT assay; format: cell-based; conditions: HepG2, 48 h
[37] = system: Klebsiella pneumoniae; test: Antibacterial activity against Klebsiella pneumoniae D 11750/08 after 48 hrs by broth microdilution method; format: functional; conditions: D 11750/08, 48 h
[38] = Cytotoxicity against human HuH7 cells assessed as reduction in cell viability after 48 hrs by MTT assay; format: cell-based; conditions: Huh-7, 48 h
[39] = system: Staphylococcus aureus; test: Antibacterial activity against Staphylococcus aureus ATCC 6538 after 48 hrs by broth microdilution method; format: functional; conditions: ATCC 6538, 48 h
[40] = system: Klebsiella pneumoniae; test: Antibacterial activity against extended spectrum beta-lactamase producing Klebsiella pneumoniae J 14368/08 after 48 hrs by broth microdilution method; format: functional; conditions: J 14368/08, 48 h
[41] = system: Aspergillus fumigatus; test: Antifungal activity against Aspergillus fumigatus 231 after 24 hrs by broth microdilution method; format: functional, organism-based; conditions: Aspergillus fumigatus, 231, 24 h
[42] = system: HeLa; test: Cytotoxicity against human HeLa cells assessed as reduction in cell viability after 48 hrs by MTT assay; format: cell-based
[43] = Cytotoxicity against human HepG2 cells assessed as cell viability at 30 uM after 48 hrs by MTT assay; format: cell-based; conditions: read-out: Activity
[44] = system: Aspergillus fumigatus; test: Antifungal activity against Aspergillus fumigatus 231 after 48 hrs by broth microdilution method; format: functional, organism-based; conditions: Aspergillus fumigatus, 231, 48 h
[45] = system: Trichosporon asahii; test: Antifungal activity against Trichosporon asahii 1188 after 24 hrs by broth microdilution method; format: functional; conditions: Trichosporon asahii, 1188, 24 h
[46] = system: Staphylococcus aureus; test: Antibacterial activity against methicillin-resistant Staphylococcus aureus H 5996/08 after 24 hrs by broth microdilution method; format: functional; conditions: H 5996/08, 24 h
[47] = system: Staphylococcus aureus; test: Antibacterial activity against Staphylococcus aureus ATCC 6538 after 24 hrs by broth microdilution method; format: functional; conditions: ATCC 6538, 24 h
[48] = system: Candida albicans; test: Antifungal activity against Candida albicans ATCC 44859 after 24 hrs by broth microdilution method; format: functional; conditions: ATCC 44859, 24 h
[49] = system: Candida tropicalis; test: Antifungal activity against Candida tropicalis 156 after 48 hrs by broth microdilution method; format: functional; conditions: Candida tropicalis, 156, 48 h
[50] = Cytotoxicity against human HeLa cells assessed as cell viability at 30 uM after 48 hrs by MTT assay; format: cell-based; conditions: read-out: Activity

O=[N+]([O-])c1cc(CSc2nnnn2-c2ccc(Cl)c(Cl)c2)cc([N+](=O)[O-])c1
viability at 48 h, 30 µM [1]: 53% | MIC [2]: 1 µM (≈ 0.427 µg/mL) | IC95 [3]: > 125 µM | IC50 [4]: > 125 µM | MIC [5]: 8 µM (≈ 3.42 µg/mL) | IC50 [6]: > 125 µM | IC95 [7]: > 125 µM | IC50 [8]: > 125 µM | IC95 [9]: > 125 µM | IC80 [10]: > 125 µM | IC80 [11]: > 125 µM | IC95 [12]: > 125 µM | IC95 [13]: > 125 µM | viability at 48 h, 30 µM [14]: 90% | IC80 [15]: > 125 µM | IC95 [16]: > 125 µM | MIC [17]: 2 µM (≈ 0.854 µg/mL) | MIC [18]: 1 µM (≈ 0.427 µg/mL) | IC95 [19]: > 125 µM | MIC [20]: 1 µM (≈ 0.427 µg/mL) | MIC [21]: 16 µM (≈ 6.84 µg/mL) | IC95 [22]: > 125 µM | IC95 [23]: > 125 µM | IC50 [24]: > 30 µM | MIC [25]: 2 µM (≈ 0.854 µg/mL) | IC80 [26]: > 125 µM | MIC [27]: 1 µM (≈ 0.427 µg/mL) | MIC [28]: 4 µM (≈ 1.71 µg/mL) | IC80 [29]: > 125 µM | MIC [30]: 1 µM (≈ 0.427 µg/mL) | IC50 [31]: > 125 µM | IC95 [32]: > 125 µM | IC95 [33]: > 125 µM | IC80 [34]: > 125 µM | IC80 [35]: > 125 µM | IC50 [36]: 26 µM | IC95 [37]: > 125 µM | IC50 [38]: > 30 µM | IC95 [39]: > 125 µM | IC95 [40]: > 125 µM | IC50 [41]: > 125 µM | IC50 [42]: > 30 µM | viability at 48 h, 30 µM [43]: 42% | IC50 [44]: > 125 µM | IC80 [45]: > 125 µM | IC95 [46]: > 125 µM | IC95 [47]: > 125 µM | IC80 [48]: > 125 µM | IC80 [49]: > 125 µM | viability at 48 h, 30 µM [50]: 67%

O=[N+]([O-])c1ccc(C[Se]c2nnnn2C2CCCCC2)c([N+](=O)[O-])c1
viability at 48 h, 30 µM [1]: 11% | MIC [2]: 4 µM (≈ 1.65 µg/mL) | IC95 [3]: > 500 µM | IC50 [4]: 31.2 µM | MIC [5]: 32 µM (≈ 13.2 µg/mL) | IC50 [6]: 31.2 µM | IC95 [7]: 15.6 µM | IC50 [8]: 500 µM | IC95 [9]: > 500 µM | IC80 [10]: > 500 µM | IC80 [11]: > 500 µM | IC95 [12]: 15.6 µM | IC95 [13]: 15.6 µM | viability at 48 h, 30 µM [14]: 49% | IC80 [15]: > 500 µM | IC95 [16]: > 500 µM | MIC [17]: 16 µM (≈ 6.58 µg/mL) | MIC [18]: 4 µM (≈ 1.65 µg/mL) | IC95 [19]: 15.6 µM | MIC [20]: 16 µM (≈ 6.58 µg/mL) | MIC [21]: 32 µM (≈ 13.2 µg/mL) | IC95 [22]: > 500 µM | IC95 [23]: > 500 µM | IC50 [24]: < 7.5 µM | MIC [25]: 62 µM (≈ 25.5 µg/mL) | IC80 [26]: 15.6 µM | MIC [27]: 16 µM (≈ 6.58 µg/mL) | MIC [28]: 62 µM (≈ 25.5 µg/mL) | IC80 [29]: 62.5 µM | MIC [30]: 8 µM (≈ 3.29 µg/mL) | IC50 [31]: > 500 µM | IC95 [32]: 31.2 µM | IC95 [33]: > 500 µM | IC80 [34]: 62.5 µM | IC80 [35]: 250 µM | IC50 [36]: 11 µM | IC95 [37]: > 500 µM | IC50 [38]: > 30 µM | IC95 [39]: 31.2 µM | IC95 [40]: > 500 µM | IC50 [41]: > 500 µM | IC50 [42]: 29 µM | viability at 48 h, 30 µM [43]: 4% | IC50 [44]: > 500 µM | IC80 [45]: 62.5 µM | IC95 [46]: 31.2 µM | IC95 [47]: 31.2 µM | IC80 [48]: 15.6 µM | IC80 [49]: > 500 µM | viability at 48 h, 30 µM [50]: 32%
